According to US8691865B2 (AbbVie Inc., priority 2008, dated 2014):
Where two headings read alike, the source gives them in different places.

Biological target: human Cav2.2 (Homo sapiens, UniProt Q00975)
Assay: Assessment of calcium channel activity using FLIPR (Ca2+ influx in IMR32 cells)
Assay type: cell-based
In short: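 Human neuroblastoma IMR32 cells were seeded at 1−1.2×10^5 cells/well and cultured 48 h at 37 °C before FLIPR calcium influx measurement. Percent inhibition at each concentration was calculated against the no-inhibitor signal, and IC50 came from sigmoidal dose-response fits.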

[1] = read-out: IC50 (μM) or percent inhibition (* indicates 3 minute incubation, otherwise 60 minute), IC50, 60 minute pre-incubation with compound, IMR32 cells, 80 mM KCl depolarization

Chain of human Cav2.2 (Q00975 whole entry): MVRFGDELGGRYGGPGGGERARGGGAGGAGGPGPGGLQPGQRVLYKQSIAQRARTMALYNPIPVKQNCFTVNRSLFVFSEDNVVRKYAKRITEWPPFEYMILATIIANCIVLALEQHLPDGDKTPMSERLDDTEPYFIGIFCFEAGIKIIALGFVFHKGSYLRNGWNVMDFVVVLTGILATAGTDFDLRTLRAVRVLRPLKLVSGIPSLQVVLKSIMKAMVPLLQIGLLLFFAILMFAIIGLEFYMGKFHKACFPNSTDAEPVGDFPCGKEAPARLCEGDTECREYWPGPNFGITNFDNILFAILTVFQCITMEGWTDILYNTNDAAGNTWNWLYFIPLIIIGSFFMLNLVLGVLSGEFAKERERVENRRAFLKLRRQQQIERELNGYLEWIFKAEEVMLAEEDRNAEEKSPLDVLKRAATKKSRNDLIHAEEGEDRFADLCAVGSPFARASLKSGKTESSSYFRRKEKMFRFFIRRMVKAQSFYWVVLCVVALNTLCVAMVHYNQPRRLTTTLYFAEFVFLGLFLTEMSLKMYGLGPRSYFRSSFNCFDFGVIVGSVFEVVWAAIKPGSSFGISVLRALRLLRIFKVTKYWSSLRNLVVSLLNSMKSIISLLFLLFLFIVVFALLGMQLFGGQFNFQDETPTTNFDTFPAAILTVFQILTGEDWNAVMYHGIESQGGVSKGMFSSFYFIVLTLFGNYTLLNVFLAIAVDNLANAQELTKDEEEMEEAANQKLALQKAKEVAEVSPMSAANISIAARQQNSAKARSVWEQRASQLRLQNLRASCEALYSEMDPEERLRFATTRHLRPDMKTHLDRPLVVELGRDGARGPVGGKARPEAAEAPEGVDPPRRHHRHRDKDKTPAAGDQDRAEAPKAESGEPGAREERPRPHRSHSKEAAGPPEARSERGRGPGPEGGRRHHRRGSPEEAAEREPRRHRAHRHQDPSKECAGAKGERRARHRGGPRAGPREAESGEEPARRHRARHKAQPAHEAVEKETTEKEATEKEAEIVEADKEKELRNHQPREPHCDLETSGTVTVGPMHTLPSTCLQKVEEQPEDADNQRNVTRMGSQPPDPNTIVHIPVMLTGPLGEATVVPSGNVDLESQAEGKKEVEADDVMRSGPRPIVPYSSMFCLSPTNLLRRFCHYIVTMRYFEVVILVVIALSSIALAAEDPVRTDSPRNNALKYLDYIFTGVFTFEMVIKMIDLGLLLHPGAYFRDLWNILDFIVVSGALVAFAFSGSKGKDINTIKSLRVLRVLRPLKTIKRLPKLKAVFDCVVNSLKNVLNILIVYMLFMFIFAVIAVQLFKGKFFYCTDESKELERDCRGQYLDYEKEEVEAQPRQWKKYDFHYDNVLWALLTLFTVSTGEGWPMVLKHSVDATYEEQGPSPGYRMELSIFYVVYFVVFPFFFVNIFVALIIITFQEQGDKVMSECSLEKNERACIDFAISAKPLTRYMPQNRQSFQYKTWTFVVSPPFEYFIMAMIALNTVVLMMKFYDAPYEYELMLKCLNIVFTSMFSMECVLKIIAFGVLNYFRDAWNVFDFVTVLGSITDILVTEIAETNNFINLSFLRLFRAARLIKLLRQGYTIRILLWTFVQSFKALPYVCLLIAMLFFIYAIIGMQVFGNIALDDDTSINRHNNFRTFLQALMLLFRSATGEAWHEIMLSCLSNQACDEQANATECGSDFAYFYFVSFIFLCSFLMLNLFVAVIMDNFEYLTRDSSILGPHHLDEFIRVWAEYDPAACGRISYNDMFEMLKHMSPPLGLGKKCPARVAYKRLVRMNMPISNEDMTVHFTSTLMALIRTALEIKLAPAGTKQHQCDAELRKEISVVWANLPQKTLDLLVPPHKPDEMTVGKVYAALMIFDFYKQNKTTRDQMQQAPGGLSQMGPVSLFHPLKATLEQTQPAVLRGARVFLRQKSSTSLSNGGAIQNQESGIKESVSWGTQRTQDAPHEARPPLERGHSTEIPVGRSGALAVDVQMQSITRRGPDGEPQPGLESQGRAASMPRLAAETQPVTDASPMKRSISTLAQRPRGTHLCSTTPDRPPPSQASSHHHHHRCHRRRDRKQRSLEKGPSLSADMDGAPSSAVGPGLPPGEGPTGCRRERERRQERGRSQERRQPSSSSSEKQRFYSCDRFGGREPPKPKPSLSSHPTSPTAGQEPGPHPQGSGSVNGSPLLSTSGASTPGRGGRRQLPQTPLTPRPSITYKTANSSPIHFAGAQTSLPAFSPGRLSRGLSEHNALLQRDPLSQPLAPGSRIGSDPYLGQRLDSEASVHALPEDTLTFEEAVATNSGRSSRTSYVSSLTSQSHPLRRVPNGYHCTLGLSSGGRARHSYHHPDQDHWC
Chain of human Cav2.2 (P54289 25-956 partner limits assumed): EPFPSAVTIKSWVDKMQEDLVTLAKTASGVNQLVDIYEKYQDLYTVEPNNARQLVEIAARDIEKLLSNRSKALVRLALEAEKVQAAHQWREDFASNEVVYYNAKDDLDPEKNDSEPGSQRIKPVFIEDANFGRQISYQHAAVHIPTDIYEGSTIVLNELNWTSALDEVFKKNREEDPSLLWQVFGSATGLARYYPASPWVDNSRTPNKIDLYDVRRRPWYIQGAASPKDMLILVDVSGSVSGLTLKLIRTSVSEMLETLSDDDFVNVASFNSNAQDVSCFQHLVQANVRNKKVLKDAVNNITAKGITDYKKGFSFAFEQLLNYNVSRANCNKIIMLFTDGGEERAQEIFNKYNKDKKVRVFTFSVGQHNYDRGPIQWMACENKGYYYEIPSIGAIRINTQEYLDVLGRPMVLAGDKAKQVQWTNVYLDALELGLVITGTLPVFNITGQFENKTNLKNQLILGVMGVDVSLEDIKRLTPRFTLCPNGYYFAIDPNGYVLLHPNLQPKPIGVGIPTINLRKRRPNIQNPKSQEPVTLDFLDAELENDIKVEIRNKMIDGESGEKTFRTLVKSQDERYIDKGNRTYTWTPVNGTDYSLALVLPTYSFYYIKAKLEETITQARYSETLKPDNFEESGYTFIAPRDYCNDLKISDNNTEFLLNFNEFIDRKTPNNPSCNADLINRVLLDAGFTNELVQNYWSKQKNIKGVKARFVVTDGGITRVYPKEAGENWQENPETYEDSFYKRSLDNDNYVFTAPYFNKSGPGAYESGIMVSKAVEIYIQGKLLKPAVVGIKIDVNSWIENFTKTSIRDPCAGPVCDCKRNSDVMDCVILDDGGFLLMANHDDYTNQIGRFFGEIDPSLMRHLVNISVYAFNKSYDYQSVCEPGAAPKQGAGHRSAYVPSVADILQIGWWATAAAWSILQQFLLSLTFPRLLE
Chain of human Cav2.2 (P54289 957-1103 partner limits assumed): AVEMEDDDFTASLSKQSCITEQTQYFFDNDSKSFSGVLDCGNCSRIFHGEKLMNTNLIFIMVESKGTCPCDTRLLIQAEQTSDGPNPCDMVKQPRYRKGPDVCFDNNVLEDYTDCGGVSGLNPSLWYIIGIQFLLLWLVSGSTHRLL
Chain of human Cav2.2 (P54284 whole entry partner): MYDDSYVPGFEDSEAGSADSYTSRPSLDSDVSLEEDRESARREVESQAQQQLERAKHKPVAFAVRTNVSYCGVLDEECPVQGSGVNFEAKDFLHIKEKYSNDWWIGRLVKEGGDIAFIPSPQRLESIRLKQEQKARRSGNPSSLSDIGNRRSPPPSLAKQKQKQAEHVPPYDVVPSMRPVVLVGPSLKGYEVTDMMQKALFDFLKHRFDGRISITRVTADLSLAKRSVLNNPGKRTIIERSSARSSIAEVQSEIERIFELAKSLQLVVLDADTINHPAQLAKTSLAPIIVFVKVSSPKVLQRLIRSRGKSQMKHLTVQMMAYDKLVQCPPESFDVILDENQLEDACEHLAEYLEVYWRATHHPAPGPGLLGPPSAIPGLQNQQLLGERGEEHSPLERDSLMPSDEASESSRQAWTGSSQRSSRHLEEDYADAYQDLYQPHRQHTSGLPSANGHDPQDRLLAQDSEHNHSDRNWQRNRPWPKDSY

Compound | IC50 | IC50 [1]
CCC[C@H](NC(C)C)C(=O)N[C@@H]1CC[C@H]2CN(Cc3ccccc3)C[C@H]21 [Example 495, N^1-[(3aS,4R,6aR)-2-benzyloctahydrocyclopenta[c]pyrrol-4-yl]-N^2-isopropyl-L-norvalinamide] | > 30 µM | –
O=C(N[C@@H]1CC[C@H]2CN(CCC(c3ccccc3)c3ccccc3)C[C@H]21)C(C1CCCCC1)C1CCCCC1 [Example 79, 2,2-dicyclohexyl-N-[(3aS,4R,6aR)-2-(3,3-diphenylpropyl)octahydrocyclopenta[c]pyrrol-4-yl]acetamide] | – | 0.94 µM
CN[C@@H](CC(C)C)C(=O)N[C@H]1CC[C@@H]2CN(c3ccc(F)c(Cl)c3)C[C@@H]21 [Example 773, N-[(3aR,4S,6aS)-2-(3-chloro-4-fluorophenyl)octahydrocyclopenta[c]pyrrol-4-yl]-N^2-methyl-L-leucinamide] | 1.79 µM | –
O=S(=O)(N[C@H]1CC[C@@H]2CN(c3cccc(C(F)(F)F)n3)C[C@@H]21)c1cccc(Cl)c1 [Example 704, 3-chloro-N-{(3aR,4S,6aS)-2-[6-(trifluoromethyl)pyridin-2-yl]octahydrocyclopenta[c]pyrrol-4-yl}benzenesulfonamide] | 4.63 µM | –
O=S(=O)(c1cccc(C(F)(F)F)c1)N(C1CC1)[C@H]1CC[C@H]2CN(CCCCCC(c3ccc(F)cc3)c3ccc(F)cc3)C[C@H]21 (relative stereo) [Example 202, N-{(3aS*,4S*,6aR*)-2-[6,6-bis(4-fluorophenyl)hexyl]octahydrocyclopenta[c]pyrrol-4-yl}-N-cyclopropyl-3-(trifluoromethyl)benzenesulfonamide] | – | 0.83 µM
CCC[C@H](NC)C(=O)N[C@H]1CC[C@@H]2CN(S(=O)(=O)c3ccc(OC)c(OC)c3)C[C@@H]21 [Example 545, N^1-{(3aR,4S,6aS)-2-[(3,4-dimethoxyphenyl)sulfonyl]octahydrocyclopenta[c]pyrrol-4-yl}-N^2-methyl-L-norvalinamide] | > 30 µM | –
O=C(CC(c1ccc(F)cc1)c1ccc(F)cc1)N[C@H]1CC[C@H]2CN(Cc3cccc(C(F)(F)F)c3)C[C@H]21 (relative stereo) [Example 133, 3,3-bis(4-fluorophenyl)-N-{(3aS*,4S*,6aR*)-2-[3-(trifluoromethyl)benzyl]octahydrocyclopenta[c]pyrrol-4-yl}propanamide] | – | 0.69 µM
CN[C@@H](CC(C)C)C(=O)N[C@H]1CC[C@@H]2CN(c3cccc(Cl)c3)C[C@@H]21 [Example 628, N-[(3aR,4S,6aS)-2-(3-chlorophenyl)octahydrocyclopenta[c]pyrrol-4-yl]-N^2-methyl-L-leucinamide] | 3.53 µM | –
CC(C)C[C@H](C(=O)N[C@@H]1CC[C@H]2CN(Cc3cccc(C(F)(F)F)c3)C[C@H]21)N(C)C(=O)OC(C)(C)C (relative stereo) [Example 150, N^2-(tert-butyloxycarbonyl)-N^2-methyl-N^1-{(3aS*,4R*,6aR*)-2-[3-(trifluoromethyl)benzyl]octahydrocyclopenta[c]pyrrol-4-yl}-D-leucinamide] | – | 0.51 µM
CN[C@@H](CC(C)C)C(=O)N[C@@H]1CC[C@H]2CN(Cc3cccc(C(F)(F)F)c3)C[C@H]21 [Example 166, N^2-methyl-N^1-{(3aS,4R,6aR)-2-[3-(trifluoromethyl)benzyl]octahydrocyclopenta[c]pyrrol-4-yl}-L-leucinamide] | – | 2.72 µM
CN[C@@H](CC(C)C)C(=O)N[C@H]1CC[C@@H]2CN(c3ccc(SC(F)(F)F)cc3)C[C@@H]21 [Example 707, N^2-methyl-N-[(3aR,4S,6aS)-2-{4-[(trifluoromethyl)thio]phenyl}octahydrocyclopenta[c]pyrrol-4-yl]-L-leucinamide] | 7.26 µM | –
CC(C)C[C@@H](C(=O)N[C@@H]1CC[C@H]2CN(Cc3ccccc3)C[C@H]21)N1CCCC1 [Example 250, (2S)-N-[(3aS,4R,6aR)-2-benzyloctahydrocyclopenta[c]pyrrol-4-yl]-4-methyl-2-pyrrolidin-1-ylpentanamide] | > 30 µM | –
CN[C@H](C(=O)N[C@H]1CC[C@@H]2CN(c3ccc(C(F)(F)F)cc3)C[C@@H]21)[C@H](C)O [Example 750, N^2-methyl-N-{(3aR,4S,6aS)-2-[4-(trifluoromethyl)phenyl]octahydrocyclopenta[c]pyrrol-4-yl}-L-allothreoninamide] | > 3 µM | –
CN[C@H](C(=O)N[C@H]1CC[C@@H]2CN(c3ccc(C(F)(F)F)cc3)C[C@@H]21)C(C)C [Example 747, N^2-methyl-N-{(3aR,4S,6aS)-2-[4-(trifluoromethyl)phenyl]octahydrocyclopenta[c]pyrrol-4-yl}-L-valinamide] | > 9.5 µM | –
CC(C)C(C(=O)N[C@@H]1CC[C@H]2CN(Cc3cccc(C(F)(F)F)c3)C[C@H]21)c1ccccc1 (stereo partly drawn) [Example 82, 3-methyl-2-phenyl-N-{(3aS,4R,6aR)-2-[3-(trifluoromethyl)benzyl]octahydrocyclopenta[c]pyrrol-4-yl}butanamide] | – | 1.48 µM
(3aR,4S,6aS)-N-[(5-fluoro-1-methyl-1H-indol-2-yl)methyl]-2-[6-(trifluoromethyl)pyridin-2-yl]octahydrocyclopenta[c]pyrrol-4-amine [Example 748] | – | 0.81 µM
CN[C@@H](C)C(=O)N[C@H]1CC[C@@H]2CN(c3ccc(C(F)(F)F)cc3)C[C@@H]21 [Example 753, N^2-methyl-N-{(3aR,4S,6aS)-2-[4-(trifluoromethyl)phenyl]octahydrocyclopenta[c]pyrrol-4-yl}-L-alaninamide] | > 9.5 µM | –
O=C(N[C@H]1CC[C@@H]2CN(c3ccc(Cl)cc3)C[C@@H]21)[C@@H]1C[C@@H](F)CN1 [Example 644, (4R)-N-[(3aR,4S,6aS)-2-(4-chlorophenyl)octahydrocyclopenta[c]pyrrol-4-yl]-4-fluoro-L-prolinamide] | 8.5 µM | –
CN[C@@H](CC(C)C)C(=O)N[C@H]1CC[C@@H]2CN(c3cccc(C#N)c3)C[C@@H]21 [Example 646, N-[(3aR,4S,6aS)-2-(3-cyanophenyl)octahydrocyclopenta[c]pyrrol-4-yl]-N^2-methyl-L-leucinamide] | 2.16 µM | –
CCC[C@H](N)C(=O)N[C@@H]1CC[C@H]2CN(S(=O)(=O)c3ccc(C(F)(F)F)cc3)C[C@H]21 [Example 423, N^1-((3aS,4R,6aR)-2-{[4-(trifluoromethyl)phenyl]sulfonyl}octahydrocyclopenta[c]pyrrol-4-yl)-L-norvalinamide] | 6.46 µM | –
O=C(N[C@H]1CC[C@@H]2CN(c3cccc(C(F)(F)F)n3)C[C@@H]21)[C@H](O)C(F)(F)F [Example 585, (2S)-3,3,3-trifluoro-2-hydroxy-N-{(3aR,4S,6aS)-2-[6-(trifluoromethyl)pyridin-2-yl]octahydrocyclopenta[c]pyrrol-4-yl}propanamide] | 1.52 µM | –

The remaining compounds from weak to strong by IC50, led by results:

IC50 | IC50 [1] | Compound
1.46 µM | – | CC(C)C(C(=O)N[C@@H]1CC[C@@H]2CN(Cc3ccccc3)C[C@@H]21)c1ccccc1 (relative stereo) [Example 5, N-[(3aR*,4R*,6aS*)-2-benzyloctahydrocyclopenta[c]pyrrol-4-yl]-3-methyl-2-phenylbutanamide]
1.38 µM | – | CC(C)(C)NC(=O)N[C@H]1CC[C@@H]2CN(c3cccc(C(F)(F)F)n3)C[C@@H]21 [Example 711, 1-tert-butyl-3-{(3aR,4S,6aS)-2-[6-(trifluoromethyl)pyridin-2-yl]octahydrocyclopenta[c]pyrrol-4-yl}urea]
1.37 µM | – | FC(F)(F)c1cccc(N2C[C@H]3CC[C@H](NCc4c[nH]nc4-c4ccc(Cl)cc4)[C@H]3C2)n1 [Example 666, (3aR,4S,6aS)-N-{[3-(4-chlorophenyl)-1H-pyrazol-4-yl]methyl}-2-[6-(trifluoromethyl)pyridin-2-yl]octahydrocyclopenta[c]pyrrol-4-amine]
1.17 µM | – | Cc1c[nH]c(CN[C@H]2CC[C@@H]3CN(c4cccc(C(F)(F)F)n4)C[C@@H]32)n1 [Example 670, (3aR,4S,6aS)-N-[(4-methyl-1H-imidazol-2-yl)methyl]-2-[6-(trifluoromethyl)pyridin-2-yl]octahydrocyclopenta[c]pyrrol-4-amine]
1.04 µM | – | O=C(N[C@H]1CC[C@H]2CN(Cc3ccccc3)C[C@H]21)C1(c2ccccc2)CCCCC1 (relative stereo) [Example 9, N-[(3aS*,4S*,6aR*)-2-benzyloctahydrocyclopenta[c]pyrrol-4-yl]-1-phenylcyclohexanecarboxamide]
1.02 µM | – | CCC[C@H](NC)C(=O)N[C@H]1CC[C@@H]2CN(c3cccc(C(F)(F)F)n3)C[C@@H]21 [Example 588, N^2-methyl-N-{(3aR,4S,6aS)-2-[6-(trifluoromethyl)pyridin-2-yl]octahydrocyclopenta[c]pyrrol-4-yl}-L-norvalinamide]
0.95 µM | – | CCCC(CCC)C(=O)N[C@H]1CC[C@H]2CN(Cc3cccc(C(F)(F)F)c3)C[C@H]21 (relative stereo) [Example 126, 2-propyl-N-{(3aS*,4S*,6aR*)-2-[3-(trifluoromethyl)benzyl]octahydrocyclopenta[c]pyrrol-4-yl}pentanamide]
0.82 µM | – | O=C(N[C@H]1CC[C@H]2CN(CCCc3cccc(F)c3)C[C@H]21)C(C1CCCCC1)C1CCCCC1 [Example 68, 2,2-dicyclohexyl-N-{(3aS,4S,6aR)-2-[3-(3-fluorophenyl)propyl]octahydrocyclopenta[c]pyrrol-4-yl}acetamide]
0.67 µM | – | O=C(N[C@H]1CC[C@H]2CN(Cc3cccc(C(F)(F)F)c3)C[C@H]21)C(c1ccccc1)c1ccccc1 (relative stereo) [Example 135, 2,2-diphenyl-N-{(3aS*,4S*,6aR*)-2-[3-(trifluoromethyl)benzyl]octahydrocyclopenta[c]pyrrol-4-yl}acetamide]
0.63 µM | – | CN[C@@H](CC(C)C)C(=O)N[C@H]1CC[C@@H]2CN(c3ccccc3C(F)(F)F)C[C@@H]21 [Example 618, N^2-methyl-N-{(3aR,4S,6aS)-2-[2-(trifluoromethyl)phenyl]octahydrocyclopenta[c]pyrrol-4-yl}-L-leucinamide]
